Test [1] has as its system human G12D mutant KRAS-positive pancreatic cancer line AsPC-1. The test can be described thus: Non-anchorage-dependent cell growth inhibition, spheroid 3D cell culture (Test Example 3). In kind it is cell-based. To be noted: Homo sapiens, ASPC1, 144 h, AsPC-1 spheroid 3D culture, 6 days, CellTiter Glo 2.0. An outline of the steps:
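AsPC-1 spheroids, 5×10^2 cells per well on low-adhesion round-bottom plates in RPMI 1640/10% FBS, dosed next day at 10 or 6 points spanning 10 μM to 0.3 nM final for 6 days at 37° C., 5% CO2. Viability by CellTiter Glo 2.0 luminescence; IC50 by Sigmoid-Emax regression, DMSO 100% and cell-free medium 0%.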

The test system of test [2] is phosphorylation of threonine 202 (Thr202) and tyrosine 204 (Tyr204) of ERK. The test can be described thus: ERK phosphorylation inhibitory effect by Cell ELISA in AsPC-1 (Test Example 2). The format is cell-based, human. To be noted: Homo sapiens, ASPC1, AsPC-1 cells, cultured overnight with compound; 1 μM trametinib taken as 0%. The method, boiled down:
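AsPC-1 cells (G12D KRAS) treated overnight with compound (10 points, 10 μM to 0.3 nM final), then glyoxal-fixed and immunostained for phospho-ERK with a fluorescent secondary read at 800 nm. IC50 by Sigmoid-Emax regression, with DMSO as 100% and 1 μM trametinib as 0%.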

For test [3], the target named is T1, KRAS G12D protein (Homo sapiens, UniProt P01116, G12D).
T1 construct: host or cells: AsPC-1
The experiment in a line: KRAS degradation activity by Cell ELISA in AsPC-1 (Test Example 1). The format is cell-based. To be noted: AsPC-1 cells, cultured overnight with compound, corrected with β-actin, read-out: DC50 (50% degradation concentration of the amounts of KRAS). The method, boiled down: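 AsPC-1 cells (KRAS G12D), 2.0×10^4/well, treated overnight with compound (10 points, 10 μM–0.3 nM final) in RPMI 1640/10% FBS. Fixed cells immunostained for G12D-specific Ras and β-actin, with near-IR fluorescence read. Ras/actin ratio scaled DMSO = 0% and actin-only = 100%, and DC50 fitted by Sigmoid-Emax regression.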

The source of these data is patent publication US20250206751A1, “HETEROCYCLIC COMPOUND FOR INDUCING DEGRADATION OF G12D MUTANT KRAS PROTEIN” (Astellas Pharma Inc., priority 2022, published 2025).

pIC50: −log10 of the molar value.

T1 sequence (P01116 1-188 isoform P01116-2 G12D): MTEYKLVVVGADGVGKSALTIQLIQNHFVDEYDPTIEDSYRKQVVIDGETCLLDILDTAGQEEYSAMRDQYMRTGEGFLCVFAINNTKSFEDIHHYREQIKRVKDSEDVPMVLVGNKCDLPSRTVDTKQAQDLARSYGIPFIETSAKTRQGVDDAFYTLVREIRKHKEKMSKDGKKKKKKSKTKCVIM

As for `Cc1ncsc1-c1ccc([C@H](CO)NC(=O)[C@@H]2C[C@@H](O)CN2C(=O)[C@H](C(C)C)n2cc(-c3ccc(COc4c(-c5c(C)c(F)cc6[nH]ncc56)c(C5CC5)cc5c(N(C)[C@H]6CCNC6)nc(OCC(C)(F)F)nc45)cc3)nn2)cc1` (atropisomer, axis not shown) [Example 36], the values for the pIC50 in test [1] and in test [2] were 7.72 and 7.68, respectively. Besides, the DC50 in test [3] worked out at 82 nM.

Consider `Cc1ncsc1-c1ccc([C@H](CO)NC(=O)[C@@H]2C[C@@H](O)CN2C(=O)[C@H](C(C)C)n2cc(-c3ccc(COc4c(-c5c(C)c(F)cc6[nH]ncc56)c(C5CC5)cc5c(N(C)[C@H]6CCNC6)nc(OCCC(F)(F)F)nc45)cc3)nn2)cc1` (atropisomer, axis not shown) [Example 37], for which the pIC50 in test [1] and in test [2] was 7.49 in each case. The DC50 in test [3] came out at 58 nM.

For `Cc1ncsc1-c1ccc([C@H](CO)NC(=O)[C@@H]2C[C@@H](O)CN2C(=O)[C@H](C(C)C)n2cc(-c3ccc(COc4c(-c5c(C)c(F)cc6[nH]ncc56)c(C5CC5)cc5c(N(C)[C@H]6CCNC6)nc(OCCCF)nc45)cc3)nn2)cc1` (atropisomer, axis not shown) [Example 38], the pIC50 in test [1] and in test [2] was 7.44 throughout. Also, in test [3], the DC50 came to 25 nM.

For the compound `COCCCOc1nc(N(C)[C@H]2CCNC2)c2cc(C3CC3)c(-c3c(C)c(F)cc4[nH]ncc34)c(OCc3ccc(-c4cn([C@H](C(=O)N5C[C@H](O)C[C@H]5C(=O)N[C@@H](CO)c5ccc(-c6scnc6C)cc5)C(C)C)nn4)cc3)c2n1` (atropisomer, axis not shown) [Example 39], the pIC50 in test [1] was 7.41; in test [2] it was 7.24. For the same compound, in test [3], the DC50 turned out to be 37 nM.

In the case of `CO[C@@H](C)COc1nc(N(C)[C@H]2CCNC2)c2cc(C3CC3)c(-c3c(C)c(F)cc4[nH]ncc34)c(OCc3ccc(-c4cn([C@H](C(=O)N5C[C@H](O)C[C@H]5C(=O)N[C@@H](CO)c5ccc(-n6cncn6)cc5)C(C)C)nn4)cc3)c2n1` (atropisomer, axis not shown) [Example 40], the figures for the pIC50 in test [1] and in test [2] were 8.22 and 8.15, respectively. Further, the DC50 in test [3] was 47 nM.

In the case of `Cc1c(F)cc2[nH]ncc2c1-c1c(C2CC2)cc2c(N(C)[C@H]3CCNC3)nc(OC[C@H]3CCCO3)nc2c1OCc1ccc(-c2cn([C@H](C(=O)N3C[C@H](O)C[C@H]3C(=O)N[C@@H](CO)c3ccc(-n4cncn4)cc3)C(C)C)nn2)cc1` (atropisomer, axis not shown) [Example 41], the results for the pIC50 in test [1] and in test [2] were 8.10 and 8.05, respectively. The DC50 in test [3] is 29 nM.

`CO[C@H](COc1nc(N(C)[C@H]2CCNC2)c2cc(C3CC3)c(-c3c(C)c(F)cc4[nH]ncc34)c(OCc3ccc(-c4cn([C@H](C(=O)N5C[C@H](O)C[C@H]5C(=O)N[C@@H](CO)c5ccc(-c6scnc6C)cc5)C(C)C)nn4)cc3)c2n1)C(F)F` (atropisomer, axis not shown) [Example 43]: the pIC50 in test [1] was 8.22; in test [2], 8.15. The DC50 in test [3] was determined as 41 nM.

For the compound `CO[C@@H](C)COc1nc(N(C)[C@H]2CCNC2)c2cc(C3CC3)c(-c3c(C)c(F)cc4[nH]ncc34)c(OCc3ccc(-c4cn([C@H](C(=O)N5C[C@H](O)C[C@H]5C(=O)N[C@@H](CO)c5ccc(-c6scnc6C)cc5)C(C)C)nn4)nc3)c2n1` (atropisomer, axis not shown) [Example 45], the pIC50 in test [1] was 7.82; in test [2], 7.80. Besides, the DC50 in test [3] was found to be 27 nM.

In the case of `CO[C@H](CF)COc1nc(N(C)[C@H]2CCNC2)c2cc(C3CC3)c(-c3c(C)c(F)cc4[nH]ncc34)c(OCc3ccc(-c4cn([C@H](C(=O)N5C[C@H](O)C[C@H]5C(=O)N[C@@H](CO)c5ccc(-c6scnc6C)cc5)C(C)C)nn4)cc3)c2n1` (atropisomer, axis not shown) [Example 46], the pIC50 in test [1] is 8.30; in test [2], 8.22. Further, the DC50 in test [3] worked out at 25 nM.

For the compound `CO[C@@H](CF)COc1nc(N(C)[C@H]2CCNC2)c2cc(C3CC3)c(-c3c(C)c(F)cc4[nH]ncc34)c(OCc3ccc(-c4cn([C@H](C(=O)N5C[C@H](O)C[C@H]5C(=O)N[C@@H](CO)c5ccc(-c6scnc6C)cc5)C(C)C)nn4)cc3)c2n1` (atropisomer, axis not shown) [Example 47], the pIC50 in test [1] was 7.82; in test [2], 7.66. In addition, the DC50 in test [3] is 26 nM.

In the case of `Cc1ncsc1-c1ccc([C@H](CO)NC(=O)[C@@H]2C[C@@H](O)CN2C(=O)[C@H](C(C)C)n2cc(-c3ccc(COc4c(-c5c(C)c(F)cc6[nH]ncc56)c(C5CC5)cc5c(N(C)[C@H]6CCNC6)nc(OC[C@@H](C)F)nc45)cc3)nn2)cc1` (atropisomer, axis not shown) [Example 48], the pIC50 in test [1] was 7.80; in test [2], 7.82. Besides, the DC50 in test [3] was 38 nM.

Take `COCC1(COc2nc(N(C)[C@H]3CCNC3)c3cc(C4CC4)c(-c4c(C)c(F)cc5[nH]ncc45)c(OCc4ccc(-c5cn([C@H](C(=O)N6C[C@H](O)C[C@H]6C(=O)N[C@@H](CO)c6ccc(-c7scnc7C)cc6)C(C)C)nn5)cc4)c3n2)CC1` (atropisomer, axis not shown) [Example 49]: the pIC50 in test [1] is 8.00; in test [2], 7.49. The DC50 in test [3] stood at 25 nM.

In the case of `CO[C@@H](C)COc1nc(N[C@@H]2CCNC2)c2cc(C3CC3)c(-c3c(C)c(F)cc4[nH]ncc34)c(OCc3ccc(-c4cn([C@H](C(=O)N5C[C@H](O)C[C@H]5C(=O)N[C@@H](CO)c5ccc(-c6scnc6C)cc5)C(C)C)nn4)cc3)c2n1` (atropisomer, axis not shown) [Example 51], the pIC50 was 7.36 in test [1] and 7.23 in test [2]. Further, in test [3], the DC50 worked out at 14 nM.

With `CO[C@@H](C)COc1nc(O[C@@H]2CCNC2)c2cc(C3CC3)c(-c3c(C)c(F)cc4[nH]ncc34)c(OCc3ccc(-c4cn([C@H](C(=O)N5C[C@H](O)C[C@H]5C(=O)N[C@@H](CO)c5ccc(-c6scnc6C)cc5)C(C)C)nn4)cc3)c2n1` (atropisomer, axis not shown) [Example 52], the pIC50 in test [1] and in test [2] was 8.40 in each case. Besides, in test [3], the DC50 stood at 11 nM.

Take `CO[C@@H](C)COc1nc(N2CCNCC2)c2cc(C3CC3)c(-c3c(C)c(F)cc4[nH]ncc34)c(OCc3ccc(-c4cn([C@H](C(=O)N5C[C@H](O)C[C@H]5C(=O)N[C@@H](CO)c5ccc(-c6scnc6C)cc5)C(C)C)nn4)cc3)c2n1` (atropisomer, axis not shown) [Example 54]: the values for the pIC50 in test [1] and in test [2] were 8.15 and 8.30, respectively. For the same compound, in test [3], the DC50 amounted to 34 nM.

In the case of `Cc1ncsc1-c1ccc([C@H](CO)NC(=O)[C@@H]2C[C@@H](O)CN2C(=O)[C@H](C(C)C)n2cc(-c3ccc(COc4c(-c5c(C)c(F)cc6[nH]ncc56)c(C5CC5)cc5c(OC6CNC6)nc(OC6CCOCC6)nc45)cc3)nn2)cc1` (atropisomer, axis not shown; (M)) [Example 2, (4R)-1-[(2S)-2-(4-{4-[({(7M)-4-[(azetidin-3-yl)oxy]-6-cyclopropyl-7-(6-fluoro-5-methyl-1H-indazol-4-yl)-2-[(oxan-4-yl)oxy]quinazolin-8-yl}oxy)methyl]phenyl}-1H-1,2,3-triazol-1-yl)-3-methylbutanoyl]-4-hydroxy-N-{(1R)-2-hydroxy-1-[4-(4-methyl-1,3-thiazol-5-yl)phenyl]ethyl}-L-prolinamide], the negative-log IC50 (pIC50) in test [1] is 7.04; in test [2], 8.05. Moreover, in test [3], the DC50 was 20 nM.

Regarding `Cc1ncsc1-c1ccc([C@H](CO)NC(=O)[C@@H]2C[C@@H](O)CN2C(=O)[C@H](C(C)C)n2cc(-c3ccc(COc4c(-c5c(C)c(F)cc6[nH]ncc56)c(C5CC5)cc5c(N(C)[C@H]6CCNC6)nc(OC[C@@H]6CCCO6)nc45)cc3)nn2)cc1` (atropisomer, axis not shown; (M)) [Example 10, (4R)-1-[(2S)-2-{4-[4-({[(7M) 6-cyclopropyl-7-(6-fluoro-5-methyl-1H-indazol-4-yl)-4-{methyl[(3S)-pyrrolidin-3-yl]amino}-2-{[(2S)-oxolan-2-yl]methoxy}quinazolin-8-yl}oxy}methyl)phenyl]-1H-1,2,3-triazol-1-yl}-3-methylbutanoyl]-4-hydroxy-N-{(1R)-2-hydroxy-1-[4-(4-methyl-1,3-thiazol-5-yl)phenyl]ethyl}-L-prolinamide], the pIC50 is 8.22 in test [1] and 8.10 in test [2]. Also, the DC50 in test [3] was found to be 18 nM.

Take `CO[C@@H](C)COc1nc(N(C)[C@H]2CCNC2)c2cc(C3CC3)c(-c3c(C)c(F)cc4[nH]ncc34)c(OCc3ccc(-c4cn([C@H](C(=O)N5C[C@H](O)C[C@H]5C(=O)N[C@@H](CO)c5ccc(-c6scnc6C)cc5)C(C)C)nn4)c(F)c3)c2n1` (atropisomer, axis not shown; (M)) [Example 44]: the pIC50 is 7.77 in test [1] and 7.51 in test [2]. Besides, in test [3], the DC50 turned out to be 43 nM.

Consider `Cc1ncsc1-c1ccc([C@H](CO)NC(=O)[C@@H]2C[C@@H](O)CN2C(=O)[C@H](C(C)C)n2cc(-c3ccc(COc4c(-c5c(C)c(F)cc6[nH]ncc56)c(C5CC5)cc5c(N[C@H]6CCNC6)cc(OC6CCOCC6)nc45)cc3)nn2)cc1` [Example 4], for which the figures for the pIC50 in test [1] and in test [2] were 8.15 and 8.10, respectively. Moreover, the DC50 in test [3] is 35 nM.
